Assay results taken from PMC6468496 (2019).
Values belong to the compound of their own block, whether it stands above or below them.

Experiments:
Assay in all cases: fluorescence titration (ligand quenching)
Conditions in all cases: 125 mM K+, 5 mM Mg2+; 40 mM HEPES pH 7.4, 25 °C, 50 nM ligand, RNA titrated, Hill fit
[1] = system: R10K6 (RNA, aptamer) GGGAGACGCAACUGAAUGAAAAUGUCAUUCAAGACUAGGUUGUGACUGCUUAGGCAGUUGUGGACGGCUAAGCCCACCAGAGGUCCGUAACUAGUCGCGUCAC
[2] = system: R10K6_V11 (RNA, aptamer) GGGAGACGCAACAGACUAGGUUGUGACUGCUUAGGCAGUUGUGGACGGCUAAGCCCACCAGAGGUCCGUAACUAGUCGCGUCAC
[3] = system: V8 (R10K6 without stem P5a) (RNA, aptamer) GGGAGACGCAACUGAAUGAAAAUGUCAUUCAAGACUAGGUUGUGACUGCUUAGGCAGUUGUGGACACCAGAGGUCCGUAACUAGUCGCGUCAC
[4] = system: V10 (R10K6 with changed J5a/5) (RNA, aptamer) GGGAGACGCAACUGAAUGAAAAUGUCAUUCAAGACUAGGUUGUGACUGCUUAGGCAGUUGUGGACGGCUAAGCCCAAACAAAGUCCGUAACUAGUCGCGUCAC
[5] = system: V13 (R10K6 ∆P1∆P2) (RNA, aptamer) GACUAGGUUGUGACUGCUUAGGCAGUUGUGGACGGCUAAGCCCACCAGAGGUCCGUAACUAGUC
[6] = system: V4 (R10K6 without P5 and P5a) (RNA, aptamer) GGGAGACGCAACUGAAUGAAAAUGUCAUUCAAGACUAGGUUGUGACUGCUUAGGCAGUUGUAACUAGUCGCGUCAC
[7] = system: V17 (R10K6 with shortened P4) (RNA, aptamer) GGGAGACGCAACUGAAUGAAAAUGUCAUUCAAGACUAGGUUGUGACAAAGGUUGUGGACGGCUAAGCCCACCAGAGGUCCGUAACUAGUCGCGUCAC

Structure (SMILES): CCn1cc(C(=O)O)c(=O)c2cc(F)c(N3CCNCC3)cc21
- binding [1]: yes

Structure (SMILES): CN1C[C@@H]2C[C@H]1CN2c1cc2c(cc1F)c(=O)c(C(=O)O)cn2C1CC1
- binding [1]: yes

Structure (SMILES): O=c1ccn(C2CC2)c2cc(N3CCNCC3)c(F)cc12
- binding [1]: weak

Second part, the compound after the results:

- binding [1]: yes
Structure (SMILES): CCN1CCN(c2cc3c(cc2F)c(=O)c(C(=O)O)cn3C2CC2)CC1

- KD [1]: 0.031 µM
- KD [2]: 0.036 µM
- KD [3]: 0.076 µM
- KD [4]: 0.101 µM
- KD [5]: 0.473 µM
- binding [6]: no
- binding [7]: no
Structure (SMILES): O=C(O)c1cn(C2CC2)c2cc(N3CCNCC3)c(F)cc2c1=O
